Patent US20250134853A1, “COMPOUNDS AND METHODS FOR USING GALLOYLATED POLYPHENOLS TO TREAT DISEASES MEDIATED BY THIOL ISOMERASES” (Beth Israel Deaconess Medical Center, Inc., priority 2023, published 2025)
Entries after “also recorded” stand apart in the source; their conditions may differ.

How the values were obtained:
[1] = target: T1, PDI (Homo sapiens, UniProt P07237); assay: Di-eosin-GSSG disulfide reductase assay, PDI; assay type: biochemical; details: Table 1; IC50 curves on PDI activity (FIGS. 13B-E, 17A-E); read-out: Relative PDI inhibition
T1 construct: FLAG; made in house; host or cells: Escherichia coli Origami B (DE3)
T1 sequence (P07237 18-508): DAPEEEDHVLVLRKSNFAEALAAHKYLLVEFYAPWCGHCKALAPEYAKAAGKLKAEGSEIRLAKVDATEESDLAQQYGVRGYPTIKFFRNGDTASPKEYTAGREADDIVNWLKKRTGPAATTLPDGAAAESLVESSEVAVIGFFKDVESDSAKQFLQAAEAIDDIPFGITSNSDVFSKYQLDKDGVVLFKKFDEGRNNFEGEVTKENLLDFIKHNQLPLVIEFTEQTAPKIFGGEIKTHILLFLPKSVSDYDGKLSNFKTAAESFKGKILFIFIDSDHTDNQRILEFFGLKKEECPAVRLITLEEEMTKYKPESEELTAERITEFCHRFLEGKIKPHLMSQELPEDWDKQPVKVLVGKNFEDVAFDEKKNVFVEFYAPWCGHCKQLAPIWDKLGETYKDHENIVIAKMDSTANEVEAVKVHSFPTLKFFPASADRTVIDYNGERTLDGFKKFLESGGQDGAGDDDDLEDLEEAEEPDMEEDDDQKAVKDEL
Description: (§1) Di-eosin-GSSG disulfide reductase assay. The probe di-eosin glutathione disulfide, di-eosin-GSSG, was prepared by incubating 100 μM of GSSG with 1 mM of eosin isothiocyanate in 100 mM potassium phosphate containing 2 mM EDTA (pH 7.4), at 25° C. overnight in the dark. The mixture was passed down a PD-10 column and different fractions were collected. A fold change of fluorescence (Ex: 520 nm, Em: 550 nm) was calculated using samples subjected to either vehicle or 20 mM of DTT. Any fraction with a fold change >5 was kept. Using a stock of 10 mM eosin isothiocyanate, a standard curve was generated and concentration of samples were determined accordingly. Di-eosin-GSSG cleavage of purified thiol isomerases and PDI domains was monitored in a 96-well fluorescence plate format. PDI, CGXC-PDI variants, ERp5, ERp57, ERp46 and PDI domains were assayed at 50 nM in the presence or absence of the indicated small molecules. The assay included a thiol isomerase assay buffer (39 mM KH2PO4, 61 mM K2HPO4, 2 mM EDTA, 5 M DTT, pH 7.4) and 150 nM of the di-eosin-GSSG probe. The increase in fluorescence was determined for 60 min by excitation at 520 nm and emission at 550 nm in a Synergy Biotek 4. The reduction of 150 nM di-eosin-GSSG by 5 μM DTT in the presence or absence of mentioned small molecule or proteins served as a negative control.

[2] = target: T1, PDI; assay: Insulin reductase assay; assay type: biochemical; details: 20 μM
Description: Insulin reductase assay. Insulin was prepared by mixing 12.5 mg/mL insulin in 50 mM Tris-HCl, pH 8. 1 M HCl was carefully added to drop the pH to 2.0 for solution clarification. Once the solution clarifies, 1 M NaOH was added to rapidly adjust the pH back to 8.0. The solution was then adjusted to 1.5 mM (10 mg/mL) with 50 mM Tris-HCl, aliquoted and stored in −20° C. until use. 2× concentrations of thiol isomerases were prepared (final concentrations as indicated in each assay) and mixed with 1.2 mM DTT (final 0.3 mM) and 0.4 mM insulin (final 0.1 mM) using a thiol isomerase activity assay buffer. Insulin precipitation from enzyme-mediated reduction was assayed in 96-well clear bottom plates at 650 nm absorption.

[3] = tested on: PDI domain fragments (a, a′, ab, abb′, b′xa′); assay: Di-eosin-GSSG assay on isolated PDI domain fragments; assay type: biochemical; details: 20 μM
Description: as §1

[4] = tested on: recombinant PDI, ERp57, and ERp5; assay: Di-eosin-GSSG assay, thiol isomerases at 20 μM compound; assay type: biochemical; details: 15 minute incubation
[5] = target: T2, SARS-CoV-2 M^pro (Severe acute respiratory syndrome coronavirus 2, UniProt P0DTD1); details: literature values (Table 2); read-out: SARS-CoV-2 M^pro inhibition; cited from earlier work
[6] = tested on: SARS-CoV-2; details: cited from earlier work
[7] = target: T2, SARS-CoV-2 M^pro; details: cited from earlier work
[8] = tested on: platelets; details: cited from earlier work

1,2,3,4,6-pentagalloylglucose [Pentagalloyl-glucose]
IC50 [1]: 2.9 µM
inhibition of the ability of PDI to reduce insulin [2]: inhibited the ability of PDI to reduce insulin
inhibition of isolated a′ domain cleavage of di-eosin-GSSG [3]: inhibited the ability of isolated a′ domain to cleave di-eosin-GSSG
inhibition of thiol isomerases (PDI, ERp57, ERp5) in words [4]: potently inhibited all thiol isomerases tested
IC50 [5]: 25 µM
IC50 ([6]; Vero Cells, read-out: Inhibition of viral replication IC50): 15 µM
inhibition of SARS-CoV-2 / infection (in words) [6]: inhibits SARS-CoV-2 viral infection in culture
Modeling shows gallic acid interaction with His41 or Glu166 [7]: occludes His41;; also recorded: reacts with Glu166
antiplatelet activities [8]: have antiplatelet activities
